Where a SMILES comes first, the peptide text is derived from it. [ ]: non-standard residue; d: D form. The star is where a group is joined. dTyr(3,5-I2) = N[C@H](Cc1cc(I)c(O)c(I)c1)C(=O)O; Dnp = O=[N+]([O-])c1ccc(*)c([N+](=O)[O-])c1; X1 = [N-]=[N+]=Nc1cc(O)c(C(=O)*)cc1I; Hyp = O=C(O)[C@@H]1C[C@@H](O)CN1; dHyp = O=C(O)[C@H]1C[C@H](O)CN1; Sar = CNCC(=O)O
Tests used:
[1] = system: calcium-induced arrythmias; assay: Calcium-induced arrhythmia model in mice (time to 2nd degree AV-block); format: in vivo; set-up: CaCl2 mice Score: scale not given here; conditions: for CaCl2 mice Score / CaCl2 mice In vivo, %: calcium chloride induced arrythmia model; for CaCl2 mice Score: no key for the score; for In vivo activity: maximal effect, increase in time until 2nd degree AV-block relative to vehicle, i.v.
Procedure: The antiarrhythmic effects of compounds of this invention were tested in an in vivo model of calcium-induced arrythmias according to the model of Lynch et al. ^[37]. […]. Commercial solutions of hypnorm and midazolam were diluted 1:1 in distilled water and one part diluted Hypnorm® is mixed with one part diluted midazolam.
The anaesthesia was induced by s.c. administration in a dose of […]. An i.v. cannula was inserted into the tail vein. The lead II ECG signal was recorded continuously by positioning of a stainless steel ECG electrodes on the right forelimb and on the left hind limb. The ground electrode was placed on the right hind limb. The signal was amplified (x 5.000-10.000) and filtered (0.1-150 Hz) via a Hugo Sachs Electronic model 689 ECG module. The analogue signal was digitised via a 12 bit data acquisition board (Data Translation model DT321) and sampled at 1000 Hz using the Notocord HEM 3.1 software for Windows NT. After a 10-min equilibration period, the test sample of drug was injected into the tail vein. Mice pre-treated with vehicle were tested as a measure of the control level in untreated animals. The injection volume was 100 µl in all experiments. Infusion of CaCl2 (30 mg/ml, 0.1 ml/min ≈ 100 mg/kg/min (calciumchlorid-2-hydrat, Riedel-de Haën, Germany)) was started 3 min after i.v. administration of drug or vehicle. The time lag to onset of 2nd degree AV-block was determined as the time from the start of CaCl2 infusion until the first arrhythmic event occured. An event of 2nd degree AV-block was defined as intermittent failure of the AV conduction characterised by a P-wave without the concomitant QRS complex.
Responses were expressed relative to the time until 2nd degree AV-block occurred in vehicle treated mice.

[2] = system: CHO cells; assay: In situ binding of [125I]AAP10 on intact CHO cells; conditions: overnight at 4° C
Procedure: CHO cells are seeded in 24-multi well dishes in a density of 7,900 cells/cm^2 (∼ 15,000 cells/well) and grown for 3 Days In Vitro (DIV) in 1 ml/well of F-12K Nutrient Mixture supplemented with 10% Foetal Calf Serum (FCS) and 1000 units penicillin/1000 µg streptomycin (pen/strep) in an atmosphere of 5% CO2 and 100% humidity at 37° C. The cell density has at that time increased to 295,000 cells/cm^2 (152 pgprot/cell ∼ 85 µgprot/well).
On the day of analysis cells are removed from the incubator and each well is washed twice with, depending on the experiment, either 2 ml pre-warmed (37 °C) or ice-cold (0 °C) D-PBS to remove serum. It is important to keep the period to a minimum during which cells are left without physiological solutions to avoid that they dry out during washing procedures. The cold washed cells are used directly for binding assays while the warm washed cells are used for experiments with glucose and oxygen deprivation.
The in situ binding is performed by a modified protocol based on the description by Koenig. […] Cells incubate overnight at 4° C to reach equilibrium. Each well, one at the time, is then rinsed rapidly with 2 x 1 ml D-PBS and left to dry.
0.25 ml of 0.5 % Triton-X-100 (v/v) is added to each well and cells left for at least 1 h to solubilize. The extract is transferred to counting vials, the wells rinsed with 0.25 ml water and the rinse extract added to the corresponding vials. The vials are counted in a γ-counter. Table 3. In situ binding, IC50 (nM).

[3] = target: murine heart tissue preparations; assay: Displacement of [125I]AAP10 from murine heart tissue preparations; format: binding, mice; conditions: displacement of 0.8 nM [125I]AAP10, filtrate; read-out: Filtrate IC50
Procedure: Hearts are excised from mice (Balb/cJ, 20 g), rinsed twice in ice-cold (0°C) 0.32 M sucrose and homogenized on ice in 10 volumes of sucrose with an Ultra Turrax homogeniser (1000 rpm) for 2 minutes. The homogenate is centrifuged at 1000 gmea" for 10 minutes at 4° C and the supernatant collected and filtrated through 4 layers of gauze. The filtrate is then centrifuged at 50,000 gmean for 45 min at 4° C and the pellet resuspended in 10 volorg. wet weight ice-cold distilled water and incubated for 60 min at 0° C and re-centrifuged at 50,000 gmean at 45 min at 4° C. The resulting pellet is resuspended in 2 vol org. wet weight of PBS (Phosphate Buffered Saline) and stored at - 80° C until use.

[4] = system: cAMP formation in CHO cells; assay: Inhibition of forskoline stimulated cAMP formation in CHO cells; format: cell-based; conditions: 10 µM forskoline, 20 min, cells pre-treated with glucose and oxygen deprivation
Procedure: CHO cells are seeded in 96-well microtiter plates in a density of 6,000 cells/cm^2 (∼ 2,000 cells/well) and grown for 4 days in vitro in 200 µl/well of growth media as described in the previous section.
On the day of analysis cells are removed from the incubator and washed twice with 200 µl pre-warmed (37°C) D-PBS (pH 7.2) to remove serum. Cells are incubated for 10 min in glucose free D-PBS and an N2-atmosphere as described in the previous section.
CHO cells are incubated at 37° C in D-PBS (pH 7.2) containing 6 mM glucose, 2.0 mM IBMX (phospodiesterase blocker), 10 µM forskoline (stimulates cAMP formation) and increasing concentrations of test peptide. The reaction is stopped after 20 min by addition of 20 µl 0.5 M HCl and left for at least 20 min at room temperature.
The content of cAMP is analysed by mixing 20 µl of the acid cell extract into FlashPlate™ wells (NEN assay kit SMP001) containing 180 µl [^12SI]cAMP tracer solution. FlashPlates™ are incubated overnight at 4° C and plate bound radioactivity counted in TopCount (Packard Instrument). Data are calculated as described in the previous section.

| Compound | CaCl2 mice Score [1] | CaCl2 mice In vivo, % [1] | further results |
| --- | --- | --- | --- |
| 3-(4-hyd roxyphenyl)propionyl-Pro-Hyp-Gly-Ala-Gly-OH [HP5, reference compound] | 2 |  | In vivo activity [1]: ++ (++ refers to 30-50% increase in time until arrhythmia) |
| CC(=O)NCC(=O)N[C@@H](CC(=O)O)C(=O)N[C@@H](CC(N)=O)C(=O)N[C@@H](Cc1ccc(O)cc1)C(N)=O [Ac-G-D-N-Y-NH2] (Ac-GDNY-NH2) | 1 |  |  |
| CC(=O)N[C@@H](Cc1ccc(O)cc1)C(=O)N[C@@H](CC(=O)O)C(=O)N[C@@H](CC(N)=O)C(=O)NCC(N)=O [Ac-Y-D-N-G-NH2] (Ac-YDNG-NH2) | 1 |  |  |
| CC(=O)N[C@@H](Cc1ccc(O)cc1)C(=O)N[C@H](CC(N)=O)C(=O)NCC(=O)O [Ac-Y-DN-G-OH] (Ac-Tyr-[dN]-Gly-OH) | 2 |  |  |
| CC(=O)N[C@@H](Cc1ccc(O)cc1)C(=O)N1CCC[C@H]1C(=O)N1C[C@H](O)C[C@H]1C(=O)NCC(=O)N[C@@H](C)C(=O)NCC(=O)O [Compound 1, Ac-Tyr-Pro-4Hyp-Gly-Ala-Gly-OH] (Ac-YP[Hyp]GAG-OH) | 1 |  |  |
| CC(=O)N[C@H](Cc1cc(I)c(O)c(I)c1)C(=O)N1CCC[C@@H]1C(=O)N1C[C@@H](O)C[C@@H]1C(=O)NCC(=O)N[C@H](C)C(=O)NCC(N)=O [Compound 24] (Ac-[dTyr(3,5-I2)][dP][dHyp]G[dA]G-NH2) |  |  | IC50 [2]: 65 nM |
| C[C@H](NC(=O)CNC(=O)[C@@H]1C[C@@H](O)CN1C(=O)[C@@H]1CCCN1C(=O)c1cc(I)c(N=[N+]=[N-])cc1O)C(=O)NCC(N)=O [Compound 32] (X1-P[Hyp]GAG-NH2) |  |  | IC50 [2]: 0.5 nM |
| C[C@H](NC(=O)CN)C(=O)NCC(=O)N1C[C@H](O)C[C@H]1C(=O)N1CCC[C@H]1C(=O)N[C@@H](Cc1ccc(O)cc1)C(=O)N[C@@H](CC(N)=O)C(N)=O [H-AAP-10-Asn-NH2] (H-GAG[Hyp]PYN-NH2) | 2 |  |  |
| NCC(=O)N[C@H](CC(N)=O)C(=O)N[C@@H](Cc1ccc(O)cc1)C(N)=O [H-G-DN-Y-NH2] (H-Gly-[dN]-Tyr-NH2) | 2 |  |  |
| C[C@H](NC(=O)CN)C(=O)N(C)CC(=O)N1C[C@H](O)C[C@H]1C(=O)N1CCC[C@H]1C(=O)N[C@@H](Cc1ccc(O)cc1)C(N)=O [H-GA-Sar-Hyp-PY-NH2] (H-GA[Sar][Hyp]PY-NH2) | 2 | 46 +/- 11% |  |
| C[C@H](NC(=O)CN)C(=O)N[C@@H](CC(N)=O)C(=O)N[C@@H](Cc1ccc(O)cc1)C(N)=O [H-GANY-NH2] (H-GANY-NH2) | 1 |  |  |
| NCC(=O)NCC(=O)N[C@@H](Cc1ccc(O)cc1)C(N)=O [H-GGY-NH2] (H-Gly-Gly-Tyr-NH2) | 2 |  |  |
| NCC(=O)N[C@@H](CCCCNc1ccc([N+](=O)[O-])cc1[N+](=O)[O-])C(=O)N[C@@H](Cc1ccc(O)cc1)C(N)=O [H-GK(DNP)Y-NH2] (H-Gly-Lys(Dnp)-Tyr-NH2) | 1 |  |  |
| C[C@H](NC(=O)CNC(=O)[C@H](CC(N)=O)NC(=O)[C@H](Cc1ccc(O)cc1)NC(=O)[C@@H]1CCCN1C(=O)[C@@H]1C[C@@H](O)CN1)C(=O)NCC(N)=O [H-HypPYNGAG-NH2] (H-[Hyp]PYNGAG-NH2) | 2 | 34 +/- 10% |  |
| CNCC(=O)N[C@@H](C)C(=O)N(C)CC(=O)N1C[C@H](O)C[C@H]1C(=O)N1CCC[C@H]1C(=O)N[C@@H](Cc1ccc(O)cc1)C(N)=O [H-Sar-A-Sar-Hyp-PY-NH2] (H-[Sar]A[Sar][Hyp]PY-NH2) | 1 | 24 +/- 7% |  |
| NC(=O)C[C@@H](NC(=O)[C@@H](N)Cc1ccc(O)cc1)C(=O)NCC(=O)O [H-Y-DN-G-OH] (H-Tyr-[dN]-Gly-OH) | 2 |  |  |
| NC(=O)CNC(=O)[C@H](CC(N)=O)NC(=O)[C@@H](N)Cc1ccc(O)cc1 [H-YNG-NH2] (H-Tyr-Asn-Gly-NH2) | 2 |  |  |

| Compound | CaCl2 mice Score [1] | CaCl2 mice In vivo, % [1] | further results |
| --- | --- | --- | --- |
| C[C@H](NC(=O)CN)C(=O)NCC(=O)N1CCC[C@@H]1C(=O)N[C@@H](C)C(=O)N[C@@H](Cc1ccc(O)cc1)C(N)=O [H-[D-Pro^4, Ala^5]AAP-10-NH2] (H-GAG[dP]AY-NH2) | 1 | 29 +/- 12% |  |
| AcGNY | 2 | 46 +/- 9% |  |
| CF3C(O)-AAP10-NH2 | 3 |  |  |
| Cyclo(retro-AAP-10-Asn) | 2 | 59 +/- 9% |  |
| GNY | 2 | 58 +/- 10% |  |
| H-AAP-10-K6-OH | 3 | 64 +/- 10% |  |
| H-DY-DN-G-NH2 | 1 |  |  |
| H-GAG-DHyp-DProY-NH2 | 2 | 49 +/- 6% |  |
| H-GAG-DHypAY-NH2 | 1 | 29 +/- 9% |  |
| H-GAGGPY-NH2 [H-GAGGPY-NH2] | 2 |  |  |
| H-GP[Hyp]GAG-OH [AAP, reference compound] | 2 |  | IC50 [3]: 1.2 nM; EC50 [4]: 53 nM; In vivo activity [1]: ++ (++ refers to 30-50% increase in time until arrhythmia); IC50 [2]: 0.8 nM |
| H-[D-Hyp^4]AAP-10-NH2 | 1 | 28 +/- 10% |  |
| HPP-PHypGAGKKKKKK-NH2 | 1 | 21 +/- 17% |  |
| HPP-PHypGAGKKKKKK-OH | 3 | 80 +/- 17% |  |
| [Pro^4]AAP10-NH2 | 3 |  |  |
| des-Hyp^4-[Asn^5]AAP-10-NH2 | 2 | 53 +/- 15% |  |
